Source: US9193720B2, “Pyridin-3-yl acetic acid derivatives as inhibitors of human immunodeficiency virus replication” (priority 2014, dated 2015)

Tested on: NL-RLuc virus
Experiment: Inhibition of HIV Replication (NL-RLuc luciferase reporter virus in MT-2 cells)
Assay type: cell-based
Settings: Human immunodeficiency virus 1, MT2, 120 h
Text: Inhibition of HIV Replication:
A recombinant NL-RLuc proviral clone was constructed in which a section of the nef gene from NL4-3 was replaced with the Renilla Luciferase gene. This virus is fully infectious and can undergo multiple cycles of replication in cell culture. In addition, the luciferous reporter provides a simple and easy method for quantitating the extent of virus growth and consequently, the antiviral activity of test compounds. The plasmid pNLRLuc contains the proviral NL-Rluc DNA cloned into pUC18 at the PvuII site. The NL-RLuc virus was prepared by transfection of 293T cells with the plasmid pNLRLuc. Transfections were performed using the LipofectAMINE PLUS kit from Invitrogen (Carlsbad, Calif.) according to the manufacturer and the virus generated was titered in MT-2 cells. For susceptibility analyses, the titrated virus was used to infect MT-2 cells in the presence of compound, and after 5 days of incubation, cells were processed and quantitated for virus growth by the amount of expressed luciferase. Assay media was RPMI 1640 supplemented with 10% heat inactivated fetal bovine serum (FBS), 100 units/ml penicillin G/100 units/ml streptomycin, 10 mM HEPES buffer pH 7.55 and 2 mM L-glutamine. The results from at least 2 experiments were used to calculate the EC50 values. Luciferase was quantitated using the Dual Luciferase kit from Promega (Madison, Wis.). Susceptibility of viruses to compounds was determined by incubation in the presence of serial dilutions of the compound. The 50% effective concentration (EC50) was calculated by using the exponential form of the median effect equation where (Fa)=1/[1+(ED50/drug conc.)^m] (Johnson V A, Byington R T. Infectivity Assay. In Techniques in HIV Research. ed. Aldovini A, Walker B D. 71-76. New York: Stockton Press. 1990).

SMILES | EC50
Cc1nc(C)c([C@H](OC(C)(C)C)C(=O)O)c(N2CCC(C)(C)CC2)c1-c1ccc(OCc2cnc(Cl)s2)cc1 [Example 47, (S)-2-(tert-butoxy)-2-(5-(4-((2-chlorothiazol-5-yl)methoxy)phenyl)-4-(4,4-dimethylpiperidin-1-yl)-2,6-dimethylpyridin-3-yl)acetic acid] | 18 nM
Cc1nc(C)c(CCOc2ccc(-c3c(C)nc(C)c([C@H](OC(C)(C)C)C(=O)O)c3N3CCC(C)(C)CC3)cc2)s1 [Example 48, (S)-2-(tert-butoxy)-2-(4-(4,4-dimethylpiperidin-1-yl)-5-(4-(2-(2,4-dimethylthiazol-5-yl)ethoxy)phenyl)-2,6-dimethylpyridin-3-yl)acetic acid] | 1 nM
Cc1nc(C)c([C@H](OC(C)(C)C)C(=O)O)c(N2CCC(C)(C)CC2)c1-c1ccc(OCC(C)(C)c2ccc(F)cc2)cc1 [Example 49, (S)-2-(tert-butoxy)-2-(4-(4,4-dimethylpiperidin-1-yl)-5-(4-(2-(4-fluorophenyl)-2-methylpropoxy)phenyl)-2,6-dimethylpyridin-3-yl)acetic acid] | 34 nM
Cc1nc(C)c([C@H](OC(C)(C)C)C(=O)O)c(N2CCC(C)(C)CC2)c1-c1ccc(OCCc2cc(F)c(F)cc2F)cc1 [Example 50, (S)-2-(tert-butoxy)-2-(4-(4,4-dimethylpiperidin-1-yl)-2,6-dimethyl-5-(4-(2,4,5-trifluorophenethoxy)phenyl)pyridin-3-yl)acetic acid] | 3 nM
Cc1nc(C)c([C@H](OC(C)(C)C)C(=O)O)c(N2CCC(C)(C)CC2)c1-c1ccc(OCCc2c(F)c(F)cc(F)c2F)cc1 [Example 51, (S)-2-(tert-butoxy)-2-(4-(4,4-dimethylpiperidin-1-yl)-2,6-dimethyl-5-(4-(2,3,5,6-tetrafluorophenethoxy)phenyl)pyridin-3-yl)acetic acid] | 6 nM
Cc1ccc(CCOc2ccc(-c3c(C)nc(C)c([C@H](OC(C)(C)C)C(=O)O)c3N3CCC(C)(C)CC3)cc2)s1 [Example 52, (S)-2-(tert-butoxy)-2-(4-(4,4-dimethylpiperidin-1-yl)-2,6-dimethyl-5-(4-(2-(5-methylthiophen-2-yl)ethoxy)phenyl)pyridin-3-yl)acetic acid] | 5 nM
Cc1noc(C)c1CCOc1ccc(-c2c(C)nc(C)c([C@H](OC(C)(C)C)C(=O)O)c2N2CCC(C)(C)CC2)cc1 [Example 53, (S)-2-(tert-butoxy)-2-(5-(4-(2-(3,5-dimethylisoxazol-4-yl)ethoxy)phenyl)-4-(4,4-dimethylpiperidin-1-yl)-2,6-dimethylpyridin-3-yl)acetic acid] | 2 nM
Cc1n[nH]c(C)c1CCOc1ccc(-c2c(C)nc(C)c([C@H](OC(C)(C)C)C(=O)O)c2N2CCC(C)(C)CC2)cc1 [Example 54, (S)-2-(tert-butoxy)-2-(5-(4-(2-(3,5-dimethyl-1H-pyrazol-4-yl)ethoxy)phenyl)-4-(4,4-dimethylpiperidin-1-yl)-2,6-dimethylpyridin-3-yl)acetic acid] | 8 nM
Cc1ccc(-c2c(C)nc(C)c([C@H](OC(C)(C)C)C(=O)O)c2N2CCC(C)(C)CC2)cc1OCc1ccccc1 [Example 55, (S)-2-(5-(3-(benzyloxy)-4-methylphenyl)-4-(4,4-dimethylpiperidin-1-yl)-2,6-dimethylpyridin-3-yl)-2-(tert-butoxy)acetic acid] | 93 nM
Cc1nc(C)c([C@H](OC(C)(C)C)C(=O)O)c(N2CCC(C)(C)CC2)c1-c1ccc(OCc2ccncc2)cc1 [Example 56, (S)-2-(tert-butoxy)-2-(4-(4,4-dimethylpiperidin-1-yl)-2,6-dimethyl-5-(4-(pyridin-4-ylmethoxy)phenyl)pyridin-3-yl)acetic acid] | 2 nM
COc1ncc(-c2c(C)nc(C)c([C@H](OC(C)(C)C)C(=O)O)c2N2CCC(C)(C)CC2)cn1 [Example 57, (S)-2-(tert-butoxy)-2-(4-(4,4-dimethylpiperidin-1-yl)-5-(2-methoxypyrimidin-5-yl)-2,6-dimethylpyridin-3-yl)acetic acid] | 217 nM
Cc1nc(C)c([C@H](OC(C)(C)C)C(=O)O)c(N2CCC(C)(C)CC2)c1-c1cnc(OCCc2ccc(F)cc2)nc1 [Example 58, (S)-2-(tert-butoxy)-2-(4-(4,4-dimethylpiperidin-1-yl)-5-(2-(4-fluoro-phenethoxy)pyrimidin-5-yl)-2,6-dimethylpyridin-3-yl)acetic acid] | 9 nM
CCCOc1ccc(-c2c(C)nc(C)c([C@H](OC(C)(C)C)C(=O)O)c2N2CCC(C)(C)CC2)cc1F [Example 59, (S)-2-(tert-butoxy)-2-(4-(4,4-dimethylpiperidin-1-yl)-5-(3-fluoro-4-propoxyphenyl)-2,6-dimethylpyridin-3-yl)acetic acid] | 21 nM
COc1cc(-c2c(C)nc(C)c([C@H](OC(C)(C)C)C(=O)O)c2N2CCC(C)(C)CC2)cc(OC)c1OC [Example 60, (S)-2-(tert-butoxy)-2-(4-(4,4-dimethylpiperidin-1-yl)-2,6-dimethyl-5-(3,4,5-trimethoxyphenyl)pyridin-3-yl)acetic acid] | 262 nM
COc1cc(-c2c(C)nc(C)c([C@H](OC(C)(C)C)C(=O)O)c2N2CCC(C)(C)CC2)ccc1C [Example 61, (S)-2-(tert-butoxy)-2-(4-(4,4-dimethylpiperidin-1-yl)-5-(3-methoxy-4-methylphenyl)-2,6-dimethylpyridin-3-yl)acetic acid] | 44 nM
COc1cccc(-c2c(C)nc(C)c([C@H](OC(C)(C)C)C(=O)O)c2N2CCC(C)(C)CC2)c1 [Example 62, (S)-2-(tert-butoxy)-2-(4-(4,4-dimethylpiperidin-1-yl)-5-(3-methoxyphenyl)-2,6-dimethylpyridin-3-yl)acetic acid] | 166 nM
Cc1nc(C)c([C@H](OC(C)(C)C)C(=O)O)c(N2CCC(C)(C)CC2)c1-c1ccc(OC(C)C)c(Cl)c1 [Example 63, (S)-2-(tert-butoxy)-2-(5-(3-chloro-4-isopropoxyphenyl)-4-(4,4-dimethylpiperidin-1-yl)-2,6-dimethylpyridin-3-yl)acetic acid] | 119 nM
CCCOc1c(C)cc(-c2c(C)nc(C)c([C@H](OC(C)(C)C)C(=O)O)c2N2CCC(C)(C)CC2)cc1C [Example 64, (S)-2-(tert-butoxy)-2-(5-(3,5-dimethyl-4-propoxyphenyl)-4-(4,4-dimethylpiperidin-1-yl)-2,6-dimethylpyridin-3-yl)acetic acid] | 26 nM
CCOc1ccc(-c2c(C)nc(C)c([C@H](OC(C)(C)C)C(=O)O)c2N2CCC(C)(C)CC2)cc1F [Example 65, (S)-2-(tert-butoxy)-2-(4-(4,4-dimethylpiperidin-1-yl)-5-(4-ethoxy-3-fluorophenyl)-2,6-dimethylpyridin-3-yl)acetic acid] | 44 nM
COc1cc(-c2c(C)nc(C)c([C@H](OC(C)(C)C)C(=O)O)c2N2CCC(C)(C)CC2)ccc1F [Example 66, (S)-2-(tert-butoxy)-2-(4-(4,4-dimethylpiperidin-1-yl)-5-(4-fluoro-3-methoxyphenyl)-2,6-dimethylpyridin-3-yl)acetic acid] | 141 nM
Cc1nc(C)c([C@H](OC(C)(C)C)C(=O)O)c(N2CCC(C)(C)CC2)c1-c1ccc(OCCc2ccc(F)cc2)nc1 [Example 67, (S)-2-(tert-butoxy)-2-(4-(4,4-dimethylpiperidin-1-yl)-6′-(4-fluorophenethoxy)-2,6-dimethyl-[3,3′-bipyridin]-5-yl)acetic acid] | 7 nM
Cc1nc(C)c([C@H](OC(C)(C)C)C(=O)O)c(N2CCC(C3CC3)C2)c1-c1ccc(OCCc2ccc(F)cc2)cc1 (stereo partly drawn) [Example 68, (2S)-2-(tert-butoxy)-2-(4-(3-cyclopropylpyrrolidin-1-yl)-5-(4-(4-fluorophenethoxy)phenyl)-2,6-dimethylpyridin-3-yl)acetic acid] | 42 nM
Cc1nc(C)c([C@H](OC(C)(C)C)C(=O)O)c(N2CC(F)(F)C2)c1-c1ccc(OCCc2ccc(F)cc2)cc1 [Example 69, (S)-2-(tert-butoxy)-2-(4-(3,3-difluoroazetidin-1-yl)-5-(4-(4-fluorophenethoxy)phenyl)-2,6-dimethylpyridin-3-yl)acetic acid] | 1990 nM
Cc1nc(C)c([C@H](OC(C)(C)C)C(=O)O)c(N2CC(C)(C)C2)c1-c1ccc(OCCc2ccc(F)cc2)cc1 [Example 70, (S)-2-(tert-butoxy)-2-(4-(3,3-dimethylazetidin-1-yl)-5-(4-(4-fluorophenethoxy)phenyl)-2,6-dimethylpyridin-3-yl)acetic acid] | 3050 nM
Cc1nc(C)c([C@H](OC(C)(C)C)C(=O)O)c(N2CC(C(C)C)C2)c1-c1ccc(OCCc2ccc(F)cc2)cc1 [Example 71, (S)-2-(tert-butoxy)-2-(5-(4-(4-fluoro-phenethoxy)phenyl)-4-(3-isopropylazetidin-1-yl)-2,6-dimethylpyridin-3-yl)acetic acid] | 3190 nM
Cc1nc(C)c([C@H](OC(C)(C)C)C(=O)O)c(N2CCC(c3ccccc3)CC2)c1-c1ccc(OCCc2ccc(F)cc2)cc1 [Example 72, (S)-2-(tert-butoxy)-2-(5-(4-(4-fluorophenethoxy)phenyl)-2,6-dimethyl-4-(4-phenylpiperidin-1-yl)pyridin-3-yl)acetic acid] | 744 nM
